For series [1], the system named is WiDr human colon cancer cells. Nature of the series: Action of inhibiting proliferation of WiDr human colon cancer cells (MTT). Format: cell-based. The following applies: 72 h, three days culture, read-out: WiDr human colon cancer cell proliferation inhibitory activity (IC50: nM). As for the experimental part: 2×10^3 cells/well of WiDr human colon cancer cells cultured in a Dulbecco's modified Eagle's medium containing 10% fetal bovine serum, penicillin (100 units/mL) and streptomycin (100 μg/mL) (DMEM, manufactured by Sigma Co.) were plated in a 96-well plate. The cells were cultured in a CO2 incubator overnight, and 20 μL of the above-described culture solution containing the test compound at threefold serial dilutions was added for culturing the cells. After three days, 50 μL of a 3.3 mg/mL MTT solution was added, and the cells were further cultured for one hour. Then, formazan generated by reduction by living cells was extracted with 100 μL of DMSO to measure the absorbance (A540/A660), which was used as an index of the number of living cells.
The concentration for inhibiting 50% of proliferation of WiDr human colon cancer cells (IC50 value) of the compound of the formula (I) was determined.

Series [2] concerns VEGF promoter. Nature of the series: VEGF transcription inhibitory activity, VEGF-PLAP reporter in U251/1-8 cells under hypoxic conditions. It is filed as cell-based. The following applies: Homo sapiens, U-251, hypoxic (2% O2) incubator 18 hours, PLAP activity in culture supernatant. From the text:
In order to prepare a reporter system in which transcription from a VEGF promoter is reflected, a VEGF promoter sequence was cloned and inserted into a placental alkaline phosphatase (PLAP) vector to construct a reporter vector.
In order to obtain a promoter region of human VEGF, a VEGF genome was cloned from a phage library. Based on VEGF cDNA (GenBank accession number: X62568), a PCR primer with the sequence described as SEQ ID NO: 1 or SEQ ID NO: 2 was designed and used for conducting PCR, thereby obtaining a fragment of about 340 bp. A human genomic phage library (human genomic library, Clontech) was screened using this fragment as a probe to obtain pUC18-VEGFA containing a VEGF 5′-flanking region of about 5.4 kb. This pUC18-VEGFA was cut with Kpn I/Nhe I to obtain a VEGF promoter region of about 2.3 kb, and the region was inserted into the multicloning site Kpn I/Nhe I of the placental alkaline phosphatase (PLAP) reporter vector (Goto et al., Mol. Pharmacol., 49, 860-873, 1996) to construct a VEGF-PLAP vector.
The above-described VEGF-PLAP vector was introduced into U251 cells cultured in a Dulbecco's modified Eagle's medium containing 10% fetal bovine serum (DMEM, manufactured by Sigma Co.), and cultured in the presence of 1 mg/ml G418 (Merck & Co., Inc.) to establish a G418-resistant stable clone (U251/1-8 cells).
As in a report by Minchenko et al. (Cell. Mol. Biol. Res., 40, 35-39, 1994), U251/1-8 cells were confirmed to be a reporter system which secretes PLAP into a culture medium under hypoxic conditions (2% O2 incubator), and in which transcription from a VEGF promoter is reflected. […]
The cells were cultured in a CO2 incubator (5% CO2) at 37° C. overnight, and 20 μl of the above-described culture solution containing the test compound at threefold serial dilutions was added. […] After the reaction for one hour, chemiluminescence was detected using a microplate reader (PerkinElmer) to measure the PLAP activity as the alkaline phosphatase activity. […] The IC50 values of compounds of the formula (I) were determined.

In series [3] the test system is P388 mouse leukemia cells. The following applies: RPM-1640 culture medium; cited from earlier work.
The subject of series [4] is L-1210 mouse leukemia cells. The conditions noted are these: RPM-1640 culture medium; cited from earlier work.
The subject of series [5] is HL-60 human leukemia cells. The following applies: RPM-1640 culture medium; cited from earlier work.
Series [6] can be described thus: Stability in an aqueous solution.
Series [7] concerns P388 mouse leukemia cells. The following applies: in vivo experiment using P388 mouse leukemia cells; cited from earlier work.

Turning to `CCC(OC(=O)N(C)C)C(C)C1OC1CC(C)/C=C/C=C(\C)C1OC(=O)CC(O)CCC(C)(O)C(OC(=O)N2CCN(C)CC2)/C=C/C1C` (centres unmarked) [Example 2, (8E,12E,14E)-21-(N,N-dimethylcarbamoyloxy)-3,6-dihydroxy-6,10,12,16,20-pentamethyl-7-((4-methylpiperazin-1-yl)carbonyl)oxy-18,19-epoxytricosa-8,12,14-trien-11-olide], the IC50 in series [1] worked out at 2.4 nM; in series [2] it was 4.2 nM.

`CCC(OC(=O)Nc1ccccc1)C(C)C1OC1CC(C)/C=C/C=C(\C)C1OC(=O)CC(O)CCC(C)(O)C(OC(=O)N2CCN(C)CC2)/C=C/C1C` (centres unmarked) [Example 3, (8E,12E,14E)-3,6-dihydroxy-6,10,12,16,20-pentamethyl-7-((4-methylpiperazin-1-yl)carbonyl)oxy-21-(N-phenylcarbamoyloxy)-18,19-epoxytricosa-8,12,14-trien-11-olide]: the IC50 was 4.8 nM in series [1] and 11.8 nM in series [2].

Regarding `CCC(OC)C(C)C1OC1C(O)C(C)/C=C/C=C(\C)C1OC(=O)CC(O)CCC(C)(O)C(OC(C)=O)/C=C/C1C` (centres unmarked) [FD-895], the “Cytotoxic activity in vitro” value in series [3], in series [4] and in series [5] was “has cytotoxic activity in vitro” throughout. Further, the “Stability in an aqueous solution” value in series [6] was “instable in an aqueous solution”. The “Antitumor activity in vivo” value in series [7] is reported as “did not show antitumor activity”.

Turning to `CCC(OC(=O)c1ccccc1)C(C)C1OC1CC(C)/C=C/C=C(\C)C1OC(=O)CC(O)CCC(C)(O)C(OC(=O)N2CCN(C)CC2)/C=C/C1C` (centres unmarked) [Example 1, (8E,12E,14E)-21-benzoyloxy-3,6-dihydroxy-6,10,12,16,20-pentamethyl-7-((4-methylpiperazin-1-yl)carbonyl)oxy-18,19-epoxytricosa-8,12,14-trien-11-olide], the IC50 in series [1] was determined as 5.9 nM; in series [2] it was 20.7 nM.

The values above are taken from US7576204B2, “Heterocyclic macrolide pharmaceutical agent, a method of producing the same and use of the same” (priority 2002, dated 2009).
